Results published in the Kinase Knowledgebase extract (Sharma et al. 2016).
pIC50: −log10 of the molar value.

Experiments:
Test in all cases: Enzyme Assay
PIK3CB (Human) = PIK3CB (Human) (UniProt P42338)
PIK3CD (Human) = PIK3CD (Human) (UniProt O00329)
PIK3CG (human) = PIK3CG (human) (UniProt P48736)
PIK3CA (human) = PIK3CA (human) (UniProt P42336)
PIK3CA (human), sequence (P42336 whole entry, looked up): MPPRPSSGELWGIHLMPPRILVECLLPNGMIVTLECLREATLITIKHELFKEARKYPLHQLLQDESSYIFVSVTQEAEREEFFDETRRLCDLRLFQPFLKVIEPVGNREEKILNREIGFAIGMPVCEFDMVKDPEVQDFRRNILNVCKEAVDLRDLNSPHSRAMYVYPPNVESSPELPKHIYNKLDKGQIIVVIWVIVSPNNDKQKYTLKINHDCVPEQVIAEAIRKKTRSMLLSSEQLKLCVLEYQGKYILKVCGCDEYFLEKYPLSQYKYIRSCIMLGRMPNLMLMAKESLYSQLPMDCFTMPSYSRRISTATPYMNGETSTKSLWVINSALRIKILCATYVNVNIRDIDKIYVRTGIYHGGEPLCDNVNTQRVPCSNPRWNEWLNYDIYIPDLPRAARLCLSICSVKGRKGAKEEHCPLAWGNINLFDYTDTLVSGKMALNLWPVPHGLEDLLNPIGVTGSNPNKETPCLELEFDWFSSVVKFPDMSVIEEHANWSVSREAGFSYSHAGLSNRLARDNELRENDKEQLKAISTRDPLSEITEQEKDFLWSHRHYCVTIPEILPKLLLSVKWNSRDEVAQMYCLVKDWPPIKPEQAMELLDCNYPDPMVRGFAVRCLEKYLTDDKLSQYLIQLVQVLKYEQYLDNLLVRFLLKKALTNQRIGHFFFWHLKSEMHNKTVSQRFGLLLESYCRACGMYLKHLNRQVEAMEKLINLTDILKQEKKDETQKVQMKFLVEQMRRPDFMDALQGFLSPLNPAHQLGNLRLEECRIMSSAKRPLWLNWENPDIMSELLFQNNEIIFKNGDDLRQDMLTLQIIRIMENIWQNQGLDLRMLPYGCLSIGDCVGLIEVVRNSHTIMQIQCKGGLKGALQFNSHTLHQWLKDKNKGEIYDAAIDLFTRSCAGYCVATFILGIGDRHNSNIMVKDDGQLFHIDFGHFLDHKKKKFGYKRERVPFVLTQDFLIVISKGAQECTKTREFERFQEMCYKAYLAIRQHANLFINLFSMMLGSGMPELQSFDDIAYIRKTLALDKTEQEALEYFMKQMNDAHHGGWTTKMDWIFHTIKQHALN

PIK3CB (Human), sequence (P42338 whole entry, looked up): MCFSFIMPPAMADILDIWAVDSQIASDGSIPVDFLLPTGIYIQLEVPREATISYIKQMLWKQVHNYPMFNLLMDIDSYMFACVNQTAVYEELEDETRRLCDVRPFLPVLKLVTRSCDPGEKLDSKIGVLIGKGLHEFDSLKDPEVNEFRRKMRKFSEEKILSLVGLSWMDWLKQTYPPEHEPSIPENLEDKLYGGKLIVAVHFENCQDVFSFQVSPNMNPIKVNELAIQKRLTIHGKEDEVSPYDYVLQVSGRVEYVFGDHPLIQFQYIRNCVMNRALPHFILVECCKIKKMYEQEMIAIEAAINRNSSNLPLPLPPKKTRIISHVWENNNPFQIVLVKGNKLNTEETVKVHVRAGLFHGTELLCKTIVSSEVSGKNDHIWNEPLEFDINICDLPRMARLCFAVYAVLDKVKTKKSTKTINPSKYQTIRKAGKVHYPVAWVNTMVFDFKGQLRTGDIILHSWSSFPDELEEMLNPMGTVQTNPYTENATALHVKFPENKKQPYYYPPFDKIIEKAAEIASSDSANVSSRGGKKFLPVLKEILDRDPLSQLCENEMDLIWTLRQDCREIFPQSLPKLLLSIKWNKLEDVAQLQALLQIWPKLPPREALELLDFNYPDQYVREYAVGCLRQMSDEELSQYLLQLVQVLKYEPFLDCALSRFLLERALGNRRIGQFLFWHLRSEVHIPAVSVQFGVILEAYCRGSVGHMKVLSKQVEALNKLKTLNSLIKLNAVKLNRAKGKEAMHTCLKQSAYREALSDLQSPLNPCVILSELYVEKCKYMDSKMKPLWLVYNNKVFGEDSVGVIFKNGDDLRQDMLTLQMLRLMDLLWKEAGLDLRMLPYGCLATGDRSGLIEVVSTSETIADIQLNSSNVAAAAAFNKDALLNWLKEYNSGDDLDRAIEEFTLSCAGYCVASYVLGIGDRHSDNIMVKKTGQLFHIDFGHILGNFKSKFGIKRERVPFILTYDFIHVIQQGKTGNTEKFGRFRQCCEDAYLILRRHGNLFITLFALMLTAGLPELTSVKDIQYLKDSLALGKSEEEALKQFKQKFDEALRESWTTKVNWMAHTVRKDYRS
PIK3CD (Human), sequence (O00329 whole entry, looked up): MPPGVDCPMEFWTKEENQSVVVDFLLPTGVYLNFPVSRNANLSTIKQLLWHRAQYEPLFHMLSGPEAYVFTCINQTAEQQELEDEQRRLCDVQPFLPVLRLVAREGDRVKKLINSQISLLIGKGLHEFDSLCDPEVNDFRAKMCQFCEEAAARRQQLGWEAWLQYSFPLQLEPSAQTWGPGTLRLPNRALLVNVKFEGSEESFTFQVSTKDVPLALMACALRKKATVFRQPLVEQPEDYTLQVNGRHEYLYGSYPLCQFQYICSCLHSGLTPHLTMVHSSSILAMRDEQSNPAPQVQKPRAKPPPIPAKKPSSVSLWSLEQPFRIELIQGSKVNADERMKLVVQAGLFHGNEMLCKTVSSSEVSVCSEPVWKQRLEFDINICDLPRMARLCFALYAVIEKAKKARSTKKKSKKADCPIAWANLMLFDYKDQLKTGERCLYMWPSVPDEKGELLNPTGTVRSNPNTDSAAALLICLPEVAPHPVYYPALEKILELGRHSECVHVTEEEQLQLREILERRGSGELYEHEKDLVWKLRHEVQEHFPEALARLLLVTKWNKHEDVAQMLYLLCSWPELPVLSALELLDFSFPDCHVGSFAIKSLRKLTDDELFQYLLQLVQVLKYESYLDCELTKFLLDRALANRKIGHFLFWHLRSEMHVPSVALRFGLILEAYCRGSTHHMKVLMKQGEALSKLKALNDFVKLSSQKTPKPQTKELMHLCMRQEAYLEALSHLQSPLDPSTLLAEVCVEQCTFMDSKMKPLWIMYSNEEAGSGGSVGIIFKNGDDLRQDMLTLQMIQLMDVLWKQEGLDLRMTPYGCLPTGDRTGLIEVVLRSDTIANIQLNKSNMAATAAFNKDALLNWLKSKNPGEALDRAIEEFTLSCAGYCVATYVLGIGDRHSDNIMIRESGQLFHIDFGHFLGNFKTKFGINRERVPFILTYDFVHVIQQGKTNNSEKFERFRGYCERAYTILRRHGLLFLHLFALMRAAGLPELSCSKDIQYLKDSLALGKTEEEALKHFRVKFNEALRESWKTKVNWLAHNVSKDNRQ
PIK3CG (human), sequence (P48736 whole entry, looked up): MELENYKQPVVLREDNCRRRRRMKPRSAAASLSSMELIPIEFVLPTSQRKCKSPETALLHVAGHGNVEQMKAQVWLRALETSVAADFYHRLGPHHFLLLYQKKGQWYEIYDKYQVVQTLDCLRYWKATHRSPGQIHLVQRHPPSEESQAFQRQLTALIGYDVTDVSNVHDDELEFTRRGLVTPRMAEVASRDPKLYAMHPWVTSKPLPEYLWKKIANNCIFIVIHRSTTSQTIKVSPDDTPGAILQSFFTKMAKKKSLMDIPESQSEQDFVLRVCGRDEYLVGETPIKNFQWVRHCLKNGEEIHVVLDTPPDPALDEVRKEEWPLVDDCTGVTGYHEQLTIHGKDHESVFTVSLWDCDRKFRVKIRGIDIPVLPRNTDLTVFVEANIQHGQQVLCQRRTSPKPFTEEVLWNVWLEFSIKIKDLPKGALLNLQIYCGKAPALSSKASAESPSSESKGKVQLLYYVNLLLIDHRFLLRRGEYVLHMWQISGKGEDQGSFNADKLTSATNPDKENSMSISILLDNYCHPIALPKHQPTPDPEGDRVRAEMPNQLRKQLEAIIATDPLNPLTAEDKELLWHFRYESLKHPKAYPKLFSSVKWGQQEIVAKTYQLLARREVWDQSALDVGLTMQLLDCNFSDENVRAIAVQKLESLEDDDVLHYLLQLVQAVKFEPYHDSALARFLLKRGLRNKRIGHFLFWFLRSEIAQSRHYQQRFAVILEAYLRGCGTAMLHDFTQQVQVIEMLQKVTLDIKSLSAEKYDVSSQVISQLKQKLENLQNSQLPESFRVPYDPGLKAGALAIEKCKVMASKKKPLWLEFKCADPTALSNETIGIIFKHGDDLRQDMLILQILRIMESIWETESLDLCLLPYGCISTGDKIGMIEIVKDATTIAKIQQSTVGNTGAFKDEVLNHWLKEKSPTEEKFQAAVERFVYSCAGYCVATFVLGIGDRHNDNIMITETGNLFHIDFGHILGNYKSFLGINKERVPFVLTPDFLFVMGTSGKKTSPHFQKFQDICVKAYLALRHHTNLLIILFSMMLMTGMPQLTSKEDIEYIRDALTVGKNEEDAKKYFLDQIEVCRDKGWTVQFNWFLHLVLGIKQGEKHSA

| pIC50 (PIK3CB (Human)) | pIC50 (PIK3CD (Human)) | pIC50 (PIK3CG (human)) | pIC50 (PIK3CA (human)) | SMILES |
| --- | --- | --- | --- | --- |
| < 5.00 | > 7.00 | > 7.00 |  | C[C@H](Nc1ncnc2scnc12)c1cc2cccc(-c3ccnnc3)c2c(=O)n1-c1ccccc1 |
| < 5.00 | 6.00 to 7.00 |  | < 5.00 | C[C@H](Nc1ncnc2scc(-c3ccccc3)c12)c1cc2cccc(Cl)c2c(=O)n1-c1ccccc1 |
| 6.00 to 7.00 | > 7.00 | > 7.00 |  | C[C@H](Nc1ccnc2scnc12)c1cc2cccc(Cl)c2c(=O)n1-c1cccc(F)c1 |
| < 5.00 | > 7.00 | 6.00 to 7.00 |  | COc1ncc(-c2cccc3cc([C@H](C)Nc4ccnc5scnc45)n(-c4ccccc4)c(=O)c23)cn1 |
| < 5.00 |  | < 5.00 | < 5.00 | Cc1nc2c(N[C@@H](C)c3cc4cccc(Cl)c4c(=O)n3-c3cccc(F)c3)ncnc2s1 |
| 6.00 to 7.00 | > 7.00 | > 7.00 | 6.00 to 7.00 | C[C@H](Nc1ncnc2scnc12)c1cc2cccc(-c3ccc(N)nc3)c2c(=O)n1C1CC1 |
| > 7.00 | > 7.00 | > 7.00 |  | C[C@H](Nc1ncnc2scnc12)c1cc2scc(Cl)c2c(=O)n1-c1ccccc1 |
| < 5.00 |  |  | < 5.00 | Cc1nc2c(N[C@@H](C)c3cc4cccc(-c5cnn(C)c5)c4c(=O)n3-c3ccccc3)ncnc2s1 |
| 6.00 to 7.00 | > 7.00 | > 7.00 | 6.00 to 7.00 | C[C@H](Nc1nc(N)nc2scnc12)c1cc2cccc(-c3cnn(C)c3)c2c(=O)n1-c1ccccc1 |
| < 5.00 | > 7.00 | 6.00 to 7.00 | < 5.00 | C[C@H](Nc1ncnc2scnc12)c1cc2cccc(-c3ccc(C(F)(F)F)nc3)c2c(=O)n1-c1ccccc1 |
| < 5.00 | > 7.00 |  | < 5.00 | Cc1sc2ncnc(N[C@@H](C)c3cc4cccc(Cl)c4c(=O)n3-c3ccccc3)c2c1C |
| 6.00 to 7.00 | > 7.00 | > 7.00 | 6.00 to 7.00 | C[C@H](Nc1ncnc2scnc12)c1cc2cccc(-c3cnc4[nH]ccc4c3)c2c(=O)n1-c1ccccc1 |
| < 5.00 | 6.00 to 7.00 | < 5.00 | < 5.00 | CNC(=O)c1cccc2cc([C@H](C)Nc3ncnc4scnc34)n(-c3ccccc3)c(=O)c12 |
| < 5.00 | > 7.00 | 6.00 to 7.00 |  | CC(C)n1cc(-c2cccc3cc([C@H](C)Nc4ncnc5scnc45)n(-c4ccccc4)c(=O)c23)cn1 |
| > 7.00 | > 7.00 | > 7.00 |  | C[C@H](Nc1ncnc2scnc12)c1cc2cccc(Cl)c2c(=O)n1C |
| < 5.00 | 6.00 to 7.00 | < 5.00 | < 5.00 | C[C@H](Nc1ncnc2scnc12)c1cc2cccc(C(=O)N(C)C)c2c(=O)n1-c1ccccc1 |
| < 5.00 | > 7.00 | > 7.00 |  | C[C@H](Nc1ncnc2scnc12)c1cc2cccc(-c3ccc(N(C)C)nc3)c2c(=O)n1-c1ccccc1 |
| < 5.00 | > 7.00 | 6.00 to 7.00 |  | COc1ncc(-c2cccc3cc([C@H](C)Nc4ncnc5scnc45)n(-c4cccc(F)c4)c(=O)c23)cn1 |
| 6.00 to 7.00 | > 7.00 | > 7.00 | 6.00 to 7.00 | C[C@H](Nc1ccnc2scnc12)c1cc2cccc(Cl)c2c(=O)n1-c1ccccc1 |
| 6.00 to 7.00 | > 7.00 | > 7.00 | 6.00 to 7.00 | C[C@H](Nc1ncnc2scnc12)c1cc2cccc(-c3cnc4ccccc4c3)c2c(=O)n1-c1ccccc1 |
|  | > 7.00 | > 7.00 | 6.00 to 7.00 | C[C@H](Nc1ncnc2scnc12)c1cc2cccc(-c3ccncc3)c2c(=O)n1-c1ccccc1 |
| < 5.00 |  |  | < 5.00 | C[C@H](Nc1ncnc2scnc12)c1cc2cccc(-c3cnc4c(c3)CCCC4)c2c(=O)n1-c1ccccc1 |
|  | > 7.00 | > 7.00 | 6.00 to 7.00 | C[C@H](Nc1ncnc2scnc12)c1cc2cccc(-c3cccc(N(C)C)c3)c2c(=O)n1-c1ccccc1 |
| 6.00 to 7.00 | > 7.00 | > 7.00 | 6.00 to 7.00 | C[C@H](Nc1ncnc2scnc12)c1cc2cccc(-c3cnn(C)c3)c2c(=O)n1C1CC1 |
| 6.00 to 7.00 | > 7.00 | > 7.00 |  | Cc1cccc2cc([C@H](C)Nc3ncnc4scnc34)n(-c3cccc(F)c3)c(=O)c12 |

The remaining lines, values behind:

| SMILES | pIC50 (PIK3CB (Human)) | pIC50 (PIK3CD (Human)) | pIC50 (PIK3CG (human)) | pIC50 (PIK3CA (human)) |
| --- | --- | --- | --- | --- |
| C[C@H](Nc1ncnc2scnc12)c1cc2cccc(-c3cncc(F)c3)c2c(=O)n1-c1ccccc1 | < 5.00 | > 7.00 | > 7.00 |  |
| C[C@H](Nc1ncnc2scnc12)c1cc2cccc(Cl)c2c(=O)n1C1CC1 | > 7.00 | > 7.00 | > 7.00 | 6.00 to 7.00 |
| Cc1nc2c(N[C@@H](C)c3cc4cccc(Cl)c4c(=O)n3-c3ccccc3)ncnc2s1 | < 5.00 | < 5.00 | < 5.00 | < 5.00 |
| C[C@H](Nc1ncnc2scnc12)c1cc2cccc(Cl)c2c(=O)n1CCN1CCCC1 | 6.00 to 7.00 | > 7.00 | < 5.00 | < 5.00 |
| COc1cncc(-c2cccc3cc([C@H](C)Nc4ncnc5scnc45)n(-c4ccccc4)c(=O)c23)c1 | 6.00 to 7.00 | > 7.00 | > 7.00 | > 7.00 |
| C[C@H](Nc1ncnc2scnc12)c1cc2cccc(-c3ccccn3)c2c(=O)n1-c1ccccc1 | < 5.00 | > 7.00 | 6.00 to 7.00 | < 5.00 |
| C[C@H](Nc1ncnc2scnc12)c1cc2cccc(C(=O)O)c2c(=O)n1-c1ccccc1 | < 5.00 |  |  | < 5.00 |
| C[C@H](Nc1ncnc2scnc12)c1cc2cccc(C(=O)N3CCOCC3)c2c(=O)n1-c1ccccc1 | < 5.00 | 6.00 to 7.00 |  | < 5.00 |
| C[C@H](Nc1ncnc2scnc12)c1cc2cccc(-c3cn(C)cn3)c2c(=O)n1-c1ccccc1 | < 5.00 | 6.00 to 7.00 | < 5.00 | < 5.00 |
| C[C@H](Nc1ncnc2scnc12)c1cc2cccc(Cl)c2c(=O)n1-c1cccc(F)c1 | > 7.00 | > 7.00 | > 7.00 | 6.00 to 7.00 |
| C[C@H](Nc1ncnc2scnc12)c1cc2scc(-c3cnn(C)c3)c2c(=O)n1-c1ccccc1 | < 5.00 | 6.00 to 7.00 | 6.00 to 7.00 |  |
| CC(C)Cn1cc(-c2cccc3cc([C@H](C)Nc4ncnc5scnc45)n(-c4ccccc4)c(=O)c23)cn1 | < 5.00 | > 7.00 | 6.00 to 7.00 |  |
| C[C@H](Nc1ncnc2scnc12)c1cc2cccc(-c3cnc4nccnc4c3)c2c(=O)n1-c1ccccc1 | < 5.00 | > 7.00 | 6.00 to 7.00 | < 5.00 |
| C[C@H](Nc1ncnc2scnc12)c1cc2cccc(Cl)c2c(=O)n1-c1ccccc1 | > 7.00 | > 7.00 | > 7.00 | 6.00 to 7.00 |
| C[C@H](Nc1ncnc2scnc12)c1cc2cccc(C=O)c2c(=O)n1-c1ccccc1 | 6.00 to 7.00 | > 7.00 | > 7.00 |  |
| C[C@H](Nc1ncnc2scnc12)c1cc2cccc(-c3ccc(F)c(F)c3)c2c(=O)n1-c1ccccc1 | < 5.00 | > 7.00 | > 7.00 |  |
| COc1cncc(-c2cccc3cc([C@H](C)Nc4ncnc5scnc45)n(C4CC4)c(=O)c23)c1 | 6.00 to 7.00 | > 7.00 | 6.00 to 7.00 | 6.00 to 7.00 |
| COc1cc(-c2cccc3cc([C@H](C)Nc4ncnc5scnc45)n(-c4ccccc4)c(=O)c23)ccn1 |  | > 7.00 | > 7.00 | 6.00 to 7.00 |
| C[C@H](Nc1ncnc2scnc12)c1cc2cccc(-c3cnn(CCN4CCOCC4)c3)c2c(=O)n1-c1ccccc1 | < 5.00 | > 7.00 | > 7.00 |  |
| Cc1ncc(-c2cccc3cc([C@H](C)Nc4ncnc5scnc45)n(-c4ccccc4)c(=O)c23)cn1 | < 5.00 | > 7.00 | 6.00 to 7.00 |  |
